Tested on: H292 cell
Assay: Evaluation of cytotoxicity in H292 cell (CCK-8)
Assay type: cell-based, human
Details: for H292 cell viability (%, mean ± variation): 24 hours, CCK-8
Method: In order to determine the cytotoxicity of inventive compound, following preliminary test was performed by the method disclosed in the literature (Shiyama et al., Talanta, 1997, 44, 1299-1305; Tominaga et al., Anal. Commun., 1999, 36, 47-50).
HT1080 (CRL-12012), H292 (CRL-1848) and murine EL4 cells (TIB-39) were purchased from company (American Type Culture Collection).
HT1080 (CRL-12012) and murine EL4 cells were cultured in DMEM medium (SB30243.01, Dulbecco's modified Eagle's medium; DMEM, HyClone) supplemented with 10% FBS (Fetal Bovine Serum; Gibco) and antibiotic (100 units/ml penicillin+100 units/ml streptomycin). H292 cell was cultured in RPMI medium (SH30027.01, RPMI 1640, Gibco) supplemented with 10% FBS and antibiotic. The cells were cultures under the condition of humidified 5% CO2 atmosphere at 37° C. PMA (P8139, Phorbol 12-myristate 13-acetate) was purchased from the company (Sigma Chemical Co., St. Louis, Mo.) and TNF-α is from the company (300-01A, PeproTech, NJ USA Inc.) to use in the experiment.
H292 cell line, a human hung mucosal cancer cell line, was suspended in 10% FBS-supplemented RPMI medium in a concentration of 5×10^4 cells/ml, and 100 μl of the suspension was inoculated into 96 well plates to adhere cell to the plate for 12 hours. Various concentrations of test sample (KS 534 compound) were treated therewith and cultured for 24 hours. 10 μL of CCK-8 solution was mixed with 90 μL of the medium and 100 μL of solution was added to each well. After reacting from 30 mins to 4 hours, the absorbance of the solution was determined at 570 nm. The cell viability was calculated according to following Math formulae 1 based on negative control group treated with 0.2% DMSO and the result was shown in Table 2.
Cell viability (%)=OD 570 nm (test group)/OD 570 nm (negative control group)×100 Math formulae 1

O=C(CO)O[C@@H]1O[C@@H]2C[C@H]3[C@H](OC(=O)c4ccc(O)c(O)c4)[C@@H](Cl)[C@@](O)(CO2)[C@@H]13 [KS-534, (3R,5S,5aS,6R,7S,8R,8aS)-8-chloro-8a-hydroxy-5-(2-hydroxyacetoxy) hexahydro-1H-3,6-methanocyclopenta[e][1,3]dioxepin-7-yl3,4-dihydroxybenzoate]
H292 cell viability (%, mean ± variation) (2.5 μm): 101.88 ± 3.71% | H292 cell viability (%, mean ± variation) (5 μm): 102.46 ± 3.96% | H292 cell viability (%, mean ± variation) (10 μm): 99.89 ± 4.79% | H292 cell viability (%, mean ± variation) (20 μm): 97.87 ± 2.92% | cytotoxicity in H292 cell (at less than 20 μm): did not show cytotoxicity

Source: patent US20170217982A1, “Compound isolated from Pseudolysimachion rotundum var. subintegrum, the composition comprising the same for treating allergic disease, inflammatory disease, asthma or chronic obstructive pulmonary disease and the use thereof” (YUNGJIN PHARMACEUTICAL CO., LTD, priority 2014, published 2017)
